# Where two headings read alike, the source gives them in different places. Non-standard residues stand in square brackets, D forms with d. Residues, ends and D or L forms follow the SMILES beside them. *: point of attachment. Dolaproine = CO[C@@H]([C@@H]1CCCN1)[C@@H](C)C(=O)O; Dil = CC[C@H](C)[C@H](NC)[C@@H](CC(=O)O)OC; X1 = C[C@@H](N*)[C@@H](O)c1ccccc1; NMeV = CN[C@H](C(=O)O)C(C)C
# What was measured:
# [1] = system: H3396 human breast carcinoma; assay: In vitro cytotoxicity (alamarBlue) on H3396; assay type: cell-based; conditions: read-out: IC50 values
# Experimental: (§1) Table 6 summarizes cytotoxic activity of MMAF, 100, 103, 107 on H3396 human breast carcinoma and Karpas-299 anaplastic large cell lymphoma cell lines assayed. To evaluate the cytotoxicity of Compounds 100, 103, and 107, cells were seeded at approximately 10,000 per well in 150 μl of culture medium containing graded doses of Compounds 100, 103, and 107 in quadruplicates at the initiation of assay. Cytotoxicity assays were usually carried out for 96 hours. Fifty μl of the alamarBlue™ dye was added to each well during the last 4 to 6 hours of the incubation to assess viable cells at the end of culture. Dye reduction was determined by fluorescence spectrometry using the excitation and emission wavelengths of 535 nm and 590 nm, respectively. For analysis, the extent of alamarBlue™ reduction by the treated cells was compared to that of the untreated control cells.
# [2] = system: Karpas-299 anaplastic large cell lymphoma cell line (CD30+); assay: In vitro cytotoxicity (alamarBlue) on Karpas 299; assay type: cell-based, human
# Experimental: as §1
# [3] = Homo sapiens, KARPAS-299, 96 h, read-out: IC50 values
# [4] = karpas 299, 96 hours, alamarBlue, read-out: IC50 values
Molecule,"IC50 ([1]; Homo sapiens, H3396, 96 h) [nM]","IC50 [2, 3] [nM]","IC50 ([1]; H3396, 96 hours, alamarBlue) [nM]","IC50 [2, 4] [nM]","IC50 ([2]; cAC10 conjugates, all 4 drugs/Ab, CD30+ cell line Karpas 299) [ng/mL]"
"CC[C@H](C)[C@@H]([C@@H](CC(=O)N1CCC[C@H]1[C@H](OC)[C@@H](C)C(=O)N[C@@H](Cc1ccccc1)C(=O)OC(C)(C)C)OC)N(C)C(=O)[C@@H](NC(=O)c1ccc(N)cc1)C(C)C [Compound 100, 4-Abz-Val-Dil-Dap-Phe-OtBu]",17.8,1.8,–,–,–
"CC[C@H](C)[C@@H]([C@@H](CC(=O)N1CCC[C@H]1[C@H](OC)[C@@H](C)C(=O)N[C@@H](Cc1ccccc1)C(=O)O)OC)N(C)C(=O)[C@@H](NC(=O)c1ccc(N)cc1)C(C)C [Compound 103, 4-Abz-Val-Dil-Dap-Phe]",> 100,43,–,–,–
"CC[C@H](C)[C@@H]([C@@H](CC(=O)N1CCC[C@H]1[C@H](OC)[C@@H](C)C(=O)N[C@@H](Cc1ccccc1)C(=O)OC)OC)N(C)C(=O)[C@@H](NC(=O)c1ccc(N)cc1)C(C)C [Compound 107, 4-Abz-Val-Dil-Dap-Phe-OMe]",0.003,0.12,–,–,–
"CC[C@H](C)[C@@H]([C@@H](CC(=O)N1CCC[C@H]1[C@H](OC)[C@@H](C)C(=O)N[C@H](C)[C@@H](O)c1ccccc1)OC)N(C)C(=O)[C@@H](NC(=O)[C@@H](NC)C(C)C)C(C)C [MMAE, mono-methyl auristatin E, reference compound] (H-[NMeV]V[Dil][Dolaproine]-X1)",–,–,0.8,0.13,–
"CC[C@H](C)[C@@H]([C@@H](CC(=O)N1CCC[C@H]1[C@H](OC)[C@@H](C)C(=O)N[C@@H](Cc1ccccc1)C(=O)O)OC)N(C)C(=O)[C@@H](NC(=O)[C@@H](NC)C(C)C)C(C)C [MMAF, N-methylvaline-valine-dolaisoleuine-dolaproine-phenylalanine, reference compound] (H-[NMeV]V[Dil][Dolaproine]F-OH)",–,–,104,130,–
"cAC10-vc-MMAF: cAC10 Conjugate with Val-Cit linker and MMAF, average 4 drugs per antibody [reference compound]",–,–,–,–,0.75

# Source: US8288352B2, “Auristatins having an aminobenzoic acid unit at the N terminus” (priority 2004, dated 2012)
